Reference: patent US11638424B2, “Mosquito attractant formulations and uses thereof” (priority 2017, dated 2023)

Experiments:
A. gambiae sensu lato [1] = test: Dual choice attraction bioassay (Y-tube olfactometer); format: in vivo; conditions: FIG. 1A
Method: (§1) Mosquitoes used in this study were from the laboratory colony of A. gambiae sensu lato (Keele line, University of Glasgow), which was produced by balanced interbreeding of four A. gambiae s.s. strains (H. Hurd, et al. Evolution, 59, 2560-2572 (2005)). Larvae were reared under standard insectary conditions (27±1° C., 70% humidity, 12 h light: 12 h dark cycle) and fed on TetraMin fish flakes (Tetra ltd., Germany). Pupae were transferred into holding cages for emergence. Emerged adults were fed ad libitum on 5% glucose solution, supplemented with 0.05% (w/v) 4-aminobenzoic acid (PABA, Sigma-Aldrich), through soaked filters on top of the 2 ml tubes and with soaked filter pads inside cages. Red blood cells (RBCs) were washed with Roswell Park Memorial Institute (RPMI) medium and stored in RPMI at 50% haematocrit at 4° C. until use. To measure the effect of HMBPP on mosquito fitness, RBCs stored in RPMI were centrifuged at 2500×g for 5 min followed by replacement of the medium with AB serum for a final haematocrit of 40%. HMBPP (stock concentration at 4 mM in Nanopure water, stored at −80° C.) was diluted to 10 μM in 1 ml RBC suspension, and the corresponding volume of Nanopure water was added to the control RBCs. All experiments were, unless otherwise stated, conducted on 5-7 days post-emergence female mosquitoes maintained in separated cages (approximately 210 individuals per cohort) and fed RBCs either with or without HMBPP for 30 min. All experiments were performed in triplicates.
Initial experiments were performed using a Y-tube olfactometer (length of the central cylinder and two arms: 25/15/15 cm respectively, inner diameter: 5 cm; see FIG. 1a). For each experiment, 180 female mosquitoes were individually placed in a release chamber and flown one by one. Females flew towards the upwind end (airflow 3 L min^−1) and entered one of two trapping chambers through which odour released from nearby membrane feeders passed (5 cm distance to each trapping chamber). Three experiments were conducted. In the first experiment, the membrane feeders were loaded with RBCs with or without HMBPP, while in the second they were loaded with serum with or without HMBPP. The third experiment was performed with a 5% glucose with 0.05% PABA solution with or without HMBPP. To control for possible spatial effects, the location of treatment at each olfactometer arm was switched every 30 minutes (˜15 mosquitoes flied one by one in each 30 minutes). Each replacement (feeder rotation with fresh RBCs) was counted as an experimental replicate (experimental block). Mosquitoes reaching any of the trapping chambers were considered to have made a choice. Each experiment was repeated six times with in total 180 mosquitoes per treatment.

A. gambiae s.l. [2] = test: Olfactometer bioassay (larger Y-tube olfactometer / wind tunnel assay); format: in vivo; conditions: larger Y-tube olfactometer, FIG. 2A
Method: Behavioural experiments were performed using different odour sources with and without pulsed CO2 stimuli in a Plexiglas Y shaped olfactometer (9.5 cm i.d.×length of the central cylinder and two arms: 120/120/120 cm respectively), illuminated from above at 280 lx. A charcoal-filtered and humidified air stream (25±2° C., RH 65±2%) passed through stainless steel mesh screens at 30 cm s^−1 to generate a laminar flow in the olfactometer. Odors were introduced into the air stream of each arm at the downwind end. […] Odor sources consisted of either RBC-based treatments or headspace extracts. RBC-based treatments included RBCs alone, hRBCs, giRBCs or ippRBCs (RBCs supplemented with HMBPP, gametocytes or IPP), as well as RBCs with supernatants from gametocyte-infected RBCs, or RBCs supplemented with the synthetic odour blend. Headspace extracts collected from hRBCs and giRBCs were used. Treatments including RBCs were heated to 37° C. prior to being pumped (150 ml min^−1) into the airstream of each arm separately. The blend and headspace extracts were delivered to each arm via a wick dispenser. Carbon dioxide (Strandmöllen) was introduced into a plume generator that was placed behind the metal screens to create a homogenous-pulsed flow, which was regulated by a stimulus controller (SEC-2/b, Syntech, Löptin Germany). […]

A. gambiae sensu lato [3] = test: Mosquito fitness after blood feeding (blood meal size, fecundity, survival); format: in vivo; conditions: hRBCs vs RBCs
Method: as §1
GLMM statistical modelling was used to corroborate the validity of results based on the whole data set by including the effect of replications (experimental blocks), including weighting for multiple replications. In all analyses, the effect of the main experimental effects (e.g. treatment) was investigated while controlling for variation in experimental replication (random variable). For all results, the significance of all explanatory effects were evaluated by using likelihood ratio test (LRT). Analyses were performed using R statistical software. […]

human Vγ9Vδ2 T-cells = conditions: cited from earlier work
A. gambiae s.l. [4] = conditions: in vivo; cited from earlier work

## C/C(=C\COP(=O)(O)OP(=O)(O)O)CO [HMBPP, (E)-4-hydroxy-3-methyl-but-2-enyl pyrophosphate]
A. gambiae sensu lato [1]; RBCs with 10 μM HMBPP vs RBCs
  host-seeking mosquitoes that chose HMBPP-supplemented RBCs (hRBCs) over RBCs: 95%
A. gambiae sensu lato [1]; glucose solution (5%) containing PABA 0.05%, with vs without HMBPP
  attraction to HMBPP-supplemented glucose solution: did not, however, increase attraction
A. gambiae sensu lato [1]; serum with vs without HMBPP
  attraction to HMBPP-supplemented serum: did not, however, increase attraction
A. gambiae s.l. [2]
  attraction of mosquitoes to supplemented RBCs versus RBCs: could mimic the attraction of mosquitoes to giRBCs
A. gambiae sensu lato [3]; FIG. 3A
  mosquito fecundity: Neither mosquito fecundity, nor survival was affected
A. gambiae sensu lato [3]; FIG. 3B
  mosquito survival: Neither mosquito fecundity, nor survival was affected
A. gambiae sensu lato [3]; FIG. 3C
  size of mosquito blood meals: significantly increased
Human Vγ9Vδ2 T-cells
  activation of human Vγ9Vδ2 T-cells: highly potent activator
A. gambiae s.l. [4]
  innate immune responses in A. gambiae s.l.: trigger innate immune responses
